In PMC8748872, “Crystal structure and functional implication of bacterial STING” (Nature Communications, 2022):

Assays:
PcSTING = target: T1, PcSTING (Prevotella corporis, UniProt A0A133PTK7); assay: crystal structure; LC-MS/MS of co-purified ligand; format: binding; details: co-purified endogenous ligand from E. coli; 2.25 A for the SeMet form
T1 construct: gene HMPREF3226_02659; C-terminal STING domain only; N-terminal His6-MBP or His6-SUMO tag removed by TEV; E. coli BL21(DE3); homodimer

[1] = target: full-length TIR-STING protein from Myroides sp. ZB35 (MyTIR-STING) (Myroides sp. ZB35); assay: SEC; 16/60 Superdex 200 increase column; 20 mM Tris pH 8.0, 200 mM NaCl, 5% glycerol, 1 mM TCEP; no c-di-GMP added

T1 sequence (A0A133PTK7 entry or part of it): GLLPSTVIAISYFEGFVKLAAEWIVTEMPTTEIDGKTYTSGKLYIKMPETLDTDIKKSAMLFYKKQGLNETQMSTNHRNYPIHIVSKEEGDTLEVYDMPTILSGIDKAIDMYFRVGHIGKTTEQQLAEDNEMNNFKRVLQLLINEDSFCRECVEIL

| Molecule | crystal structure; LC-MS/MS of co-purified ligand (PcSTING) | stoichiometry N [1] |
| --- | --- | --- |
| Nc1nc2c(ncn2[C@@H]2O[C@@H]3COP(=O)(O)O[C@H]4[C@@H](O)[C@H](n5cnc6c(=O)[nH]c(N)nc65)O[C@@H]4COP(=O)(O)O[C@H]3[C@H]2O)c(=O)[nH]1 [c-di-GMP] | PcSTING/c-di-GMP and MySTING/c-di-GMP complexes have been deposited in the Protein Data Bank | – |
| full-length TIR-STING protein from Myroides sp. ZB35 (MyTIR-STING) (natural protein) | – | 2 |
